PMC10064984, “Anti-cyclooxygenase, anti-glycation, and anti-skin aging effect of Dendrobium officinale flowers’ aqueous extract and its phytochemical validation in aging” (Frontiers in Immunology, 2023)
“And” between values parts separate entries of the source, which are not always exact repeats. Identical values can stand only once. Each block holds one compound with its values, some of them ahead of it.

How the values were obtained:
Assay type in all cases: biochemical
DPPH· scavenging = settings: mean ± SD, n = 3
[1] = FRAP total antioxidant capacity; settings: lower part of sheet (compound series);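 also: colourimetric FRAP kit assay read as absorbance in 96-well plates, values as mM FeSO4 via standard curve, EC1 being sample concentration matching 1.0 mmol/L FeSO4, Trolox positive control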
[2] = ABTS·+ decolourisation capacity; settings: for ABTS scavenging rate: 0.5mM series, replicate wells, listed as T21; for IC50: mean ± SD, n = 3
Procedure: Fast colourimetric methods were slightly modified for the in vitro assessment of DPPH· scavenging ([19]), ABTS·+ decolourisation capacity ([20]), and total antioxidant capacity of FRAP ([21]). The stock solutions of derivatisation reagents were diluted as follows before measurement: DPPH was diluted with absolute ethanol until the absorbance was 0.8 ± 0.05 at λ = 517 nm. ABTS working solution was prepared with phosphate buffer (0.2 M, pH 7.4) to display absorbance of 0.8 ± 0.05 at λ = 729 nm, based on a previous study ([22]). The FRAP solution was prepared according to the instructions of the FRAP kit. Absorbances were measured using an automatic microplate reader (Molecular Group Ltd., USA), and all analyses were performed using 96-well plates. All measurements were performed in triplicate, and Trolox was used as a positive control.
For ABTS·+ decolourisation capacity, 100 μl of ABTS working solution was mixed with 200 μl of sample solution, and the absorbance was recorded after 10 min at 729 nm. Phosphate buffer (0.2 M, pH 7.4) was used as a negative control.
DPPH· and ABTS·+ radical scavenging activities of the tested sample were both calculated using the following formula:
% inhibition = (A control − A sample)/A control × 100
Where A control and A sample represent the absorbance of the control and test samples, respectively. The IC50 was calculated graphically from the dose-inhibition curves.

COX-2 = target: T1, COX-2 (Homo sapiens, UniProt P35354); test: Anti-COX-2 assay (COX-2 Inhibitor Screening Kit); settings: for COX-2 inhibition: single replicates
T1 construct: purchased Beyotime S0168
T1 sequence (P35354 18-604): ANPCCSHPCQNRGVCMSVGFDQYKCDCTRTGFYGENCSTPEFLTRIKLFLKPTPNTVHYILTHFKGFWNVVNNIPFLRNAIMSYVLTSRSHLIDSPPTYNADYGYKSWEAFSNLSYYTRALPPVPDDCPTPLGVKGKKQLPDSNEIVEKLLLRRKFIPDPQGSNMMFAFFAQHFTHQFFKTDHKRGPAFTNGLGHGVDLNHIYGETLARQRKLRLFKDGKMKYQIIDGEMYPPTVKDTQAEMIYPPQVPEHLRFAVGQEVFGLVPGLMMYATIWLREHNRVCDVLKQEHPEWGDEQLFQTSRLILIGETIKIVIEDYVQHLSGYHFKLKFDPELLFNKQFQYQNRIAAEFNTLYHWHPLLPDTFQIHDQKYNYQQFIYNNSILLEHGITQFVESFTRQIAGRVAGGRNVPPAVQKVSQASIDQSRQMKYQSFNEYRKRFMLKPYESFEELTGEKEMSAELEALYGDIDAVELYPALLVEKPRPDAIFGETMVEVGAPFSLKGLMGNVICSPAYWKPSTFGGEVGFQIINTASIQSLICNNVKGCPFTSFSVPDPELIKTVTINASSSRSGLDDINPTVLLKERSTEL

[3] = Fluorescent AGEs formation in a BSA-fructose/glucose system; settings: for inhibition of fluorescent AGEs formation (BSA-抗糖化), single replicate: individual replicate; for inhibition of fluorescent AGEs formation (BSA-抗糖化), 平均 (mean): mean of 3 replicates
Procedure: Glycated protein was prepared in vitro by incubating BSA in the presence of D-glucose (GLC) and D-fructose (FRC). The DOF extract and specific standards were dissolved in DMSO:water (1:4). […] The assay was performed in triplicate, and AG was used as a positive control. The percentage inhibition of fluorescent AGE formation was calculated using the following equation: […] Where IF sample is fluorescence intensity in the presence of samples and BSA, IF sample control is fluorescence intensity in the presence of samples without BSA, IF control is fluorescence intensity without samples, and IF blank control is fluorescence intensity without samples and BSA.

[4] = mean ± SD, n = 3, read-out: BSA-glycation IC50

Compound: Neoschaftoside [compound 21]
IC50 (DPPH· scavenging): > 5000 µM | FRAP EC1 [1]: >5000 µM | ABTS scavenging rate ([2]; concentration 15.625 (unit not given)): 37.92% and 38.74% and 38.24% | ABTS scavenging rate ([2]; concentration 31.25 (unit not given)): 60.76% and 61.20% and 60.99% | ABTS scavenging rate ([2]; concentration 62.5 (unit not given)): 81.08% and 80.87% and 80.62% | ABTS scavenging rate ([2]; concentration 125 (unit not given)): 92.61% and 92.60% and 92.36% | ABTS scavenging rate ([2]; concentration 250 (unit not given)): 98.02% (2×) and 98.07% | ABTS scavenging rate ([2]; concentration 500 (unit not given)): 99.70% and 99.73% and 99.67% | IC50 [2]: 21.4 ± 0.24 µM | COX-2 inhibition (in words) (COX-2): no inhibitory effects | COX-2 inhibition (COX-2; 31.25 μM, listed as T21, 31.25 µM): -6.16% and -4.80% and 6.61% | COX-2 inhibition (COX-2; 62.5 μM, listed as T21, 62.5 µM): 6.28% and 7.65% and 11.30% | COX-2 inhibition (COX-2; 125 μM, listed as T21, 125 µM): 1.19% and -2.74% and 1.96% | COX-2 inhibition (COX-2; 250 μM, listed as T21, 250 µM): 3.95% and 0.81% and 18.87% | COX-2 inhibition (COX-2; 500 μM, listed as T21, 500 µM): -4.13% and -1.62% and 4.93% | COX-2 inhibition (COX-2; 1000 μM, listed as T21, 1000 µM): -1.41% and 2.18% and 12.07% | COX-2 inhibition (COX-2; 2000 μM (2mM), listed as T21): 51.51% and 49.86% and 47.92% | inhibition of fluorescent AGEs formation (BSA-抗糖化), single replicate ([3]; 15.625 µM): 0.054% and 0.23% and 1.18% | inhibition of fluorescent AGEs formation (BSA-抗糖化), 平均 (mean) ([3]; 15.625 µM): 0.49% | inhibition of fluorescent AGEs formation (BSA-抗糖化), single replicate ([3]; 31.25 µM): 5.09% and 4.69% and 3.66% | inhibition of fluorescent AGEs formation (BSA-抗糖化), 平均 (mean) ([3]; 31.25 µM): 4.48% | inhibition of fluorescent AGEs formation (BSA-抗糖化), single replicate ([3]; 62.5 µM): 7.25% and 9.67% and 10.17% | inhibition of fluorescent AGEs formation (BSA-抗糖化), 平均 (mean) ([3]; 62.5 µM): 9.03% | inhibition of fluorescent AGEs formation (BSA-抗糖化), single replicate ([3]; 125 µM): 20.04% and 20.34% and 19.73% | inhibition of fluorescent AGEs formation (BSA-抗糖化), 平均 (mean) ([3]; 125 µM): 20.04% | inhibition of fluorescent AGEs formation (BSA-抗糖化), single replicate ([3]; 250 µM): 36.81% and 35.45% and 36.08% | inhibition of fluorescent AGEs formation (BSA-抗糖化), 平均 (mean) ([3]; 250 µM): 36.11% | inhibition of fluorescent AGEs formation (BSA-抗糖化), single replicate ([3]; 500 µM): 54.95% and 55.05% and 56.69% | inhibition of fluorescent AGEs formation (BSA-抗糖化), 平均 (mean) ([3]; 500 µM): 55.56% | inhibition of fluorescent AGEs formation (BSA-抗糖化), single replicate ([3]; 1000 µM): 71.70% (2×) and 72.55% | inhibition of fluorescent AGEs formation (BSA-抗糖化), 平均 (mean) ([3]; 1000 µM): 71.98% | inhibition of fluorescent AGEs formation (BSA-抗糖化), single replicate ([3]; 2000 µM): 83.42% and 82.90% and 83.96% | inhibition of fluorescent AGEs formation (BSA-抗糖化), 平均 (mean) ([3]; 2000 µM): 83.43% | inhibition of fluorescent AGEs formation (BSA-抗糖化), single replicate ([3]; 4000 µM (series head 'T9 4000µM', 2-fold dilutions)): 91.13% and 89.60% and 90.19% | inhibition of fluorescent AGEs formation (BSA-抗糖化), 平均 (mean) ([3]; 4000 µM): 90.31% | IC50 ([3]; BSA anti-glycation, IC50 of each of 3 replicates, read-out: IC50, single replicate curve): 432 µM and 437 µM and 421 µM | IC50 [3, 4]: 430 ± 8 µM

IC50 (DPPH· scavenging): > 5000 µM | IC50 [2]: 96.4 ± 2.11 µM | COX-2 inhibition (COX-2; 31.25 μM, listed as T6, 31.25 µM): -4.26% | COX-2 inhibition (COX-2; 62.5 μM, listed as T6, 62.5 µM): -25.49% and -4.46% | COX-2 inhibition (COX-2; 125 μM, listed as T6, 125 µM): -10.40% | COX-2 inhibition (COX-2; 500 μM, listed as T6, 500 µM): -29.71% and -20.21% | COX-2 inhibition (COX-2; 1000 μM, listed as T6, 1000 µM): -42.43% and -38.19% | IC50 [3, 4]: 256 ± 5.44 µM
Compound: O=c1cc(-c2ccc(O)cc2)oc2c(C3OC(CO)C(O)C(O)C3O)c(O)c(C3OCC(O)C(O)C3O)c(O)c12 (stereo not shown) [compound 14, Vicenin-1]
FRAP EC1 [1]: >5000 µM

IC50 (DPPH· scavenging): > 5000 µM | IC50 [2]: 34.31 ± 0.1 µM | COX-2 inhibition (in words) (COX-2): no inhibitory effects | COX-2 inhibition (COX-2; 3.125 μM, listed as T13, 3.125 µM): 9.26% and 13.01% and -4.90% | COX-2 inhibition (COX-2; 6.25 μM, listed as T13, 6.25 µM): 7.55% and 7.65% and -2.11% | COX-2 inhibition (COX-2; 12.5 μM, listed as T13, 12.5 µM): 5.53% and -11.45% and -30.89% | COX-2 inhibition (COX-2; 25 μM, listed as T13, 25 µM): -6.59% and -8.12% and -23.58% | COX-2 inhibition (COX-2; 50 μM, listed as T13, 50 µM): -22.46% and -22.25% and -29.37% | COX-2 inhibition (COX-2; 100 μM, listed as T13, 100 µM): -33.58% and -17.93% and -41.32% | COX-2 inhibition (COX-2; 200 μM, listed as T13, 200 µM): -24.47% and -35.20% and -49.99% | IC50 [3, 4]: 276 ± 33 µM
Compound: O=c1c(O[C@@H]2O[C@H](CO)[C@@H](O)[C@H](O)[C@H]2O)c(-c2ccc(O)cc2)oc2cc(O)cc(O)c12 [compound 31, Astragalin]
FRAP EC1 [1]: >5000 µM | inhibition of fluorescent AGEs formation (BSA-抗糖化), single replicate ([3]; 15.625 µM, listed as T13, 15.625 µM): 3.97% and 2.43% and 3.28% | inhibition of fluorescent AGEs formation (BSA-抗糖化), 平均 (mean) ([3]; 15.625 µM): 3.23% | inhibition of fluorescent AGEs formation (BSA-抗糖化), single replicate ([3]; 31.25 µM, listed as T13, 31.25 µM): 6.47% and 9.23% and 6.65% | inhibition of fluorescent AGEs formation (BSA-抗糖化), 平均 (mean) ([3]; 31.25 µM): 7.45% | inhibition of fluorescent AGEs formation (BSA-抗糖化), single replicate ([3]; 62.5 µM, listed as T13, 62.5 µM): 16.61% and 18.46% and 18.15% | inhibition of fluorescent AGEs formation (BSA-抗糖化), 平均 (mean) ([3]; 62.5 µM): 17.74% | inhibition of fluorescent AGEs formation (BSA-抗糖化), single replicate ([3]; 125 µM, listed as T13, 125 µM): 25.98% and 33.83% and 29.94% | inhibition of fluorescent AGEs formation (BSA-抗糖化), 平均 (mean) ([3]; 125 µM): 29.92% | inhibition of fluorescent AGEs formation (BSA-抗糖化), single replicate ([3]; 250 µM, listed as T13, 250 µM): 39.66% and 53.40% and 48.31% | inhibition of fluorescent AGEs formation (BSA-抗糖化), 平均 (mean) ([3]; 250 µM): 47.12% | inhibition of fluorescent AGEs formation (BSA-抗糖化), single replicate ([3]; 500 µM, listed as T13, 500 µM): 65.95% and 67.35% and 67.23% | inhibition of fluorescent AGEs formation (BSA-抗糖化), 平均 (mean) ([3]; 500 µM): 66.84% | inhibition of fluorescent AGEs formation (BSA-抗糖化), single replicate ([3]; 1000 µM, listed as T13, 1000 µM): 79.55% and 78.97% and 78.39% | inhibition of fluorescent AGEs formation (BSA-抗糖化), 平均 (mean) ([3]; 1000 µM): 78.97% | inhibition of fluorescent AGEs formation (BSA-抗糖化), single replicate ([3]; 2000 µM, listed as T13, 2000 µM): 89.49% and 89.99% and 89.93% | inhibition of fluorescent AGEs formation (BSA-抗糖化), 平均 (mean) ([3]; 2000 µM): 89.80% | inhibition of fluorescent AGEs formation (BSA-抗糖化), single replicate ([3]; 4000 µM (series head 'T9 4000µM', 2-fold dilutions), listed as T13): 94.89% and 93.91% and 94.80% | inhibition of fluorescent AGEs formation (BSA-抗糖化), 平均 (mean) ([3]; 4000 µM): 94.53%
